Laboratory results taken from US7982094B2, “Gene encoding lignan methylation enzyme” (Sunitory Holdings Limited, priority 2006, dated 2011).

Tests used:
SiOMT1 [1] = test: Assay for COMT activity of SiOMT1 on caffeic acid; assay type: biochemical, Sesamum indicum; conditions: 0.4 mg/ml caffeic acid, 10 mM SAM, 30° C. for an hour, HPLC and LC-MS; product ferulic acid
Procedure: (§1) The methyltransferase activity of SiOMT1 and SrOMT1 expressed in EXAMPLES 5 and 7 on caffeic acid was studied. In a reaction tube, 10 μl of 0.4 mg/ml caffeic acid, 200 μl of the crude enzyme solution of SiOMT expressed in Escherichia coli and 10 μl of 10 mM SAM were mixed, and the mixture was reacted at 30° C. for an hour.

SrOMT1 [2] = test: Assay for COMT activity of SrOMT1 on caffeic acid; assay type: biochemical, Sesamum radiatum; conditions: 0.4 mg/ml caffeic acid, 10 mM SAM, 30° C. for an hour, HPLC and LC-MS; product ferulic acid
Procedure: as §1

SrOMT1 [3] = test: Lignan methylation activity assay of recombinant SrOMT1 (crude enzyme from E. coli, SAM, HPLC of products); assay type: biochemical, Sesamum radiatum; conditions: as in EXAMPLE 6: 10 mM SAM, 30° C. for 2 hours
SiOMT1 [4] = test: Lignan methylation activity assay of recombinant SiOMT1 (crude enzyme from E. coli, SAM, HPLC/LC-MS of products); assay type: biochemical, Sesamum indicum; conditions: substrate solution 1 mg/ml, 10 mM SAM, 30° C. for 2 hours, HPLC at 280 nm
Procedure: (§2) Sesame lignan used as a substrate for the enzyme reaction was dissolved in a small quantity of DMSO and then in 70% ethanol to prepare the substrate solution (1 mg/ml). Sesame lignan can be produced, for example, by extracting and purifying from sesame in accordance with publicly known methods (J. Bioscience, Biotechnology and Biochemistry, 67: 1693 (1993)). After 10 μl of the substrate solution, 200 μl of the aforesaid crude enzyme solution of SiOMT expressed in Escherichia coli and 10 μl of 10 mM S-adenosyl-L-methionine (SAM) were mixed in a reaction tube, the mixture was reacted at 30° C. for 2 hours.
The enzyme reaction was terminated by adding 100% acetonitrile (250 μl) containing 0.1% trifluoroacetic acid (TFA) to the reaction tube. The reaction tube was vigorously agitated with a vortex mixer, followed by centrifugation at 15,000 rpm at 4° C. for 5 minutes. The resulting supernatant was washed through a filter (pore size of […], 4 mm Millex-LH, Millipore) and then analyzed using high performance liquid chromatography (hereinafter HPLC). The conditions for the analysis of lignans and methylated lignans are as follows.
(§3) Liquid chromatography (Lc-2010c, Shimadzu Corporation) was performed using a C-30 column (Nomura Chemical, C30-UG-5, […]). […] Absorption was monitored at 280 nm to detect the compounds contained in a sample. The spectra between 190 nm and 400 nm for each peak of the compounds were measured using SPD-10AV (Shimadzu Corporation) to detect substances having two absorption maxima (230 nm and 280 nm) characteristic of lignans. Under the conditions, authentic pinoresinol is detected at about 11.8 minutes, authentic piperitol at about 15.5 minutes and authentic sesaminol at about 16.8 minutes.
Next, the molecular weight of the novel lignan produced with SiOMT1 was determined by the LC-MS analysis (liquid chromatography (LC): Waters 2795 (Waters Inc.), mass spectrograph: QUATRO micro (MICROMASS, Inc.)). […]
Under the conditions, peak A is detected at about 8.3 minutes and peak B at about 11.3 minutes (FIGS. 3-5). […]

SiOMT2 = test: Lignan methylation activity assay of recombinant SiOMT2 (crude enzyme from E. coli, SAM, HPLC of products); assay type: biochemical, Sesamum indicum; conditions: substrate solution 1 mg/ml, 10 mM SAM, 30° C. for 2 hours, HPLC at 280 nm
Procedure: as §2
The enzyme reaction was terminated by adding 100% acetonitrile (250 μl) containing 0.1% trifluoroacetic acid (TFA) to the reaction tube. […] The resulting supernatant was washed through a filter (pore size of […], 4 mm Millex-LH, Millipore) and then analyzed using high performance liquid chromatography (hereinafter HPLC). […]
as §3, with “Under the conditions, authentic pinoresinol is detected at about 11.8 minutes, authentic piperitol at about 15.5 minutes and authentic sesaminol at about 16.8 minutes.” left out

| Compound | methyltransferase (COMT) activity of SiOMT1 on caffeic acid (SiOMT1 [1]) | methyltransferase (COMT) activity of SrOMT1 on caffeic acid (SrOMT1 [2]) | methylation of the substrate by SrOMT1 (lignan methylation activity) (SrOMT1 [3]) | methylation of the substrate by SiOMT1 (lignan methylation activity) (SiOMT1 [4]) | methylation of the substrate by SiOMT2 (lignan methylation activity) (SiOMT2) |
| --- | --- | --- | --- | --- | --- |
| O=C(O)/C=C/c1ccc(O)c(O)c1 [caffeic acid] | had the COMT activity | had the COMT activity | – | – | – |
| COc1cc([C@@H]2OC[C@@H]3[C@H]2CO[C@H]3c2ccc3c(c2)OCO3)ccc1O [piperitol] | – | – | exhibited the methylation activity | having the monomethylation activity | any new product was not detected |
| Oc1cc2c(cc1[C@H]1OC[C@H]3[C@@H]1CO[C@@H]3c1ccc3c(c1)OCO3)OCO2 [sesaminol] | – | – | – | did not show any methylation activity | – |
| pinoresinol | – | – | exhibited the methylation activity | having the monomethylation activity | any new product was not detected |
